Results from patent US4002623A, “Anti-inflammatory 1-[3-(dialkylamino)propyl]-2-acylaminobenzimidazoles and 2-acylamino-3-[3-(dialkylamino)-propyl]imidazo[4,5-b]pyridines” (Pfizer Inc., priority 1974, dated 1977).
Like-named read-outs stand apart in the source and are kept apart here.

Test: adjuvant arthritis screen (Walz et al.), swelling of the non-injected left hind foot on Day 16
Assay type: in vivo, male inbred Lewis rats
Conditions: Rattus norvegicus, 384 h, daily day -1 through day 15, read-out: Activity Percent Inhibition; for inhibition in vivo at 20 mg/kg: 20 mg./kg. po; for inhibition in vivo at 33 mg/kg: 33 mg./kg. ip
Source text: The adjuvant arthritis test described by Walz et al., Ann. Rheum. Dis., 30, 303 (1971) was selected as the method of choice for the determination of the extent of which the novel compounds of the present invention are therapeutically effective as anti-inflammatory agents. Adjuvant arthritis is a crippling deformity in rats resulting from diffuse connective tissue involvement. It is considered by some authorities to be the best available experimental animal model of human rheumatoid arthritis because of its strong clinical and pathological similarities to the human disease and because it can be effectively treated with known anti-arthritic drugs. In this test, lesions resembling those of human rheumatoid arthritis are induced by the injection of complete Freund's adjuvant into one hind leg of a rat. A vigorous inflammatory response occurs in the injected hind leg and reaches its greatest size in about four days. This primary response is followed by the development of a second inflammatory response, appearing about 12-16 days post-injection, that occurs in the uninjected hind leg. While the compounds of the invention are capable of inhibiting the degree of inflammation in both legs, the inhibition of swelling in the uninjected leg at 16 days is considered to be the more meaningful measure of antiarthritic activity.
The adjuvant arthritis screen as described by Walz et al. (Ann. Rheum. Dis., 30: 303 (1971), was used to evaluate the above prepared compounds.
The screen is conducted using male inbred Lewis rats weighing approximately 250 gm. The animals are dosed with drug beginning on day- 1 and continuing daily through day 15. On Day 0, the subplanter surface of the right hind paw is injected with 0.1cc of a 1% suspension of Mycobacterium butyricum (Freunds adjuvant) in Primol (Esso). The swelling of the non-injected left hind foot on Day 16, resulting from immune response to adjuvant, was determined for dosed animals and controls. The foot volume is measured by immersing the paw to the anatomical hairline into a mercury reservoir which is connected to a Statham pressure transducer and a recording device. The results are expressed as % inhibition calculated according to the following equation: [formula] The results obtained are as follows for [drawing 22] where Z is --N(CH3)2 and X is carbon: […]

`Cc1cc2nc(NC(=O)c3cccc(C(F)(F)F)c3)n(CCCN3CCN(C)CC3)c2cc1C` gave an inhibition in vivo at 20 mg/kg of 22%.
Work on `CN(C)CCCn1c(NC(=O)c2cccc(C(F)(F)F)c2)nc2ccccc21` yielded an inhibition in vivo at 33 mg/kg of 21%.
Compound `CN1CCN(CCCn2c(NC(=O)c3cccc(C(F)(F)F)c3)nc3cc(S(=O)(=O)N(C)C)ccc32)CC1` has an inhibition in vivo at 20 mg/kg of 22%.
Compound `CN1CCN(CCCn2c(NC(=O)c3ccc(Cl)c(Cl)c3)nc3cc(S(=O)(=O)N(C)C)ccc32)CC1` has an inhibition in vivo at 20 mg/kg of 31%.
Work on `CN1CCN(CCCn2c(NC(=O)c3cc(C(F)(F)F)cc(C(F)(F)F)c3)nc3ccccc32)CC1` yielded an inhibition in vivo at 20 mg/kg of 32%.
For `Cc1cc2nc(NC(=O)c3ccc(C(F)(F)F)cc3)n(CCCN3CCN(C)CC3)c2cc1C`, the inhibition in vivo at 20 mg/kg was 29%.
With `CN1CCN(CCCn2c(NC(=O)c3ccc(C(F)(F)F)cc3)nc3cc(S(=O)(=O)N(C)C)ccc32)CC1` the inhibition in vivo at 20 mg/kg was 34%.
`CN1CCN(CCCn2c(NC(=O)C34CC5CC(CC(C5)C3)C4)nc3ccccc32)CC1` [1-Adamantyl; H; H; drawing 24] showed an inhibition in vivo at 33 mg/kg of 28%.
In the case of `CN(C)CCCn1c(NC(=O)c2ccccc2Cl)nc2ccccc21` [2-Chlorophenyl; H; H; Z = N(CH3)2], the inhibition in vivo at 33 mg/kg is reported as 15%.
`CN(C)CCCn1c(NC(=O)C=Cc2ccccc2Cl)nc2ccccc21` [2-Chlorostyryl; H; H; Z = N(CH3)2] gave an inhibition in vivo at 33 mg/kg of 45%.
In the case of `O=C(Nc1nc2ccccc2n1CCCN1CCOCC1)c1ccccc1F` [2-Fluorophenyl; H; H; drawing 23], the inhibition in vivo at 33 mg/kg is reported as 6%.
`CN1CCN(CCCn2c(NC(=O)c3ccco3)nc3ccccc32)CC1` [2-Furyl; H; H; drawing 24, 1-[3-(4-methyl-1-piperazinyl)propyl]-2-(2-furamido)-benzimidazole] showed an inhibition in vivo at 20 mg/kg of 43%.
`Cc1cc2nc(NC(=O)c3ccc(Cl)c(Cl)c3)n(CCCN3CCN(C)CC3)c2cc1C` [3,4-Dichlorophenyl; CH3; CH3; drawing 24] showed an inhibition in vivo at 20 mg/kg of 18%.
Compound `Cc1ccc2nc(NC(=O)c3ccc(Cl)c(Cl)c3)n(CCCN3CCN(C)CC3)c2c1` [3,4-Dichlorophenyl; H; CH3; drawing 24] has an inhibition in vivo at 20 mg/kg of 22%.
`CN(C)CCCn1c(NC(=O)c2ccc(Cl)c(Cl)c2)nc2ccccc21` [3,4-Dichlorophenyl; H; H; Z = N(CH3)2] gave an inhibition in vivo at 10 mg/kg (10 mg./kg. po) of 13% and an inhibition in vivo at 33 mg/kg of 67%.
Work on `CN1CCN(CCCn2c(NC(=O)c3ccc(Cl)c(Cl)c3)nc3ccccc32)CC1` [3,4-Dichlorophenyl; H; H; drawing 24, 1-[3-(4-methyl-1-piperazinyl)propyl]-2-(3,4-dichlorobenzamido)benzimidazole] yielded an inhibition in vivo at 10 mg/kg (10 mg./kg. po) of 32% and an inhibition in vivo at 33 mg/kg of 61%.
Compound `CN1CCN(CCCn2c(NC(=O)c3ccc(Cl)c(Cl)c3)nc3cccnc32)CC1` [3,4-Dichlorophenyl; H; H; drawing 25, 2-(3,4-dichlorobenzamido)-3-[4-(methyl-1-piperazino)-propyl]imidazo[4,5-b]pyridine] has an inhibition in vivo at 10 mg/kg (10 mg./kg. po) of 27% and an inhibition in vivo at 20 mg/kg of 41%.
For `O=C(Nc1nc2ccccc2n1CCCN1CCCCC1)c1ccc(Cl)c(Cl)c1` [3,4-Dichlorophenyl; H; H; drawing 26], the inhibition in vivo at 33 mg/kg was 25%.
Work on `O=C(Nc1nc2ccccc2n1CCCN1CCN(Cc2ccccc2)CC1)c1ccc(Cl)c(Cl)c1` [3,4-Dichlorophenyl; H; H; drawing 27] yielded an inhibition in vivo at 10 mg/kg (10 mg./kg. ip) of 19%.
`COc1ccc2c(c1)nc(NC(=O)c1ccc(Cl)c(Cl)c1)n2CCCN1CCN(C)CC1` [3,4-Dichlorophenyl; OCH3; H; drawing 24, 1-[3-(4-methyl-1-piperazinyl)propyl]-2-(3,4-dichlorobenzamido)-5-methoxybenzimidazole] showed an inhibition in vivo at 10 mg/kg (10 mg./kg. po) of 35%.
Work on `CN1CCN(CCCn2c(NC(=O)c3cc(Cl)cc(Cl)c3)nc3ccccc32)CC1` [3,5-Dichlorophenyl; H; H; drawing 24] yielded an inhibition in vivo at 33 mg/kg of 31%.
